Data on 22 compounds can be found in ChEMBL document CHEMBL3045259, “Synthesis, molecular docking studies, and in vitro screening of sulfanilamide-thiourea hybrids as antimicrobial and urease inhibitors” (Med Chem Res, 2013).

Converted amounts (≈) assume the structure as drawn. The source made the active and inactive calls. The rule behind the calls is not given here.

One test deals with Shigella flexneri. The experiment in a line: Antibacterial activity against Shigella flexneri assessed as growth inhibition after 24 hr by NCCLS broth micro-dilution method. Format: functional. For orientation: Broth dilution looks for growth in wells or tubes with falling amounts of substance.
Another test has as its target Urease (Canavalia ensiformis, UniProt P07374). The experiment in a line: (§1) Inhibition of Canavalia ensiformis (jack bean) urease assessed as release of ammonia after 30 min by indophenol method.
The subject of a further test is Escherichia coli. The experiment in a line: Antibacterial activity against Escherichia coli assessed as growth inhibition after 24 hr by NCCLS broth micro-dilution method. Format: functional.
The subject of a further test is Bacillus subtilis. The experiment in a line: Antibacterial activity against Bacillus subtilis assessed as growth inhibition after 24 hr by NCCLS broth micro-dilution method. Format: functional.
In the next test the test system is Staphylococcus aureus. The experiment in a line: Antibacterial activity against Staphylococcus aureus assessed as growth inhibition after 24 hr by NCCLS broth micro-dilution method. Type of test: functional.
For the next test, the system named is Aspergillus flavus. The experiment in a line: Antifungal activity against Aspergillus flavus assessed as inhibition of fungal hyphae extension after 24 to 48 hr by agar well diffusion method. Type of test: functional.
A further test concerns Aspergillus. Description: Antifungal activity against Aspergillus […] assessed as inhibition of fungal hyphae extension after 24 to 48 hr by agar well diffusion method. Format: functional. In general terms: Agar diffusion results depend on both activity and mobility in agar.
The test system of another test is Aspergillus niger. Description: Antifungal activity against Aspergillus niger assessed as inhibition of fungal hyphae extension after 24 to 48 hr by agar well diffusion method. Type of test: functional.
Test [1] addresses Urease (Canavalia ensiformis) (UniProt P07374). Description: Ratio of thiourea Ki to compound Ki for Canavalia ensiformis (jack bean) urease.
For test [2] the target is unchanged. The description is as §1.

Urease, sequence (P07374 whole entry): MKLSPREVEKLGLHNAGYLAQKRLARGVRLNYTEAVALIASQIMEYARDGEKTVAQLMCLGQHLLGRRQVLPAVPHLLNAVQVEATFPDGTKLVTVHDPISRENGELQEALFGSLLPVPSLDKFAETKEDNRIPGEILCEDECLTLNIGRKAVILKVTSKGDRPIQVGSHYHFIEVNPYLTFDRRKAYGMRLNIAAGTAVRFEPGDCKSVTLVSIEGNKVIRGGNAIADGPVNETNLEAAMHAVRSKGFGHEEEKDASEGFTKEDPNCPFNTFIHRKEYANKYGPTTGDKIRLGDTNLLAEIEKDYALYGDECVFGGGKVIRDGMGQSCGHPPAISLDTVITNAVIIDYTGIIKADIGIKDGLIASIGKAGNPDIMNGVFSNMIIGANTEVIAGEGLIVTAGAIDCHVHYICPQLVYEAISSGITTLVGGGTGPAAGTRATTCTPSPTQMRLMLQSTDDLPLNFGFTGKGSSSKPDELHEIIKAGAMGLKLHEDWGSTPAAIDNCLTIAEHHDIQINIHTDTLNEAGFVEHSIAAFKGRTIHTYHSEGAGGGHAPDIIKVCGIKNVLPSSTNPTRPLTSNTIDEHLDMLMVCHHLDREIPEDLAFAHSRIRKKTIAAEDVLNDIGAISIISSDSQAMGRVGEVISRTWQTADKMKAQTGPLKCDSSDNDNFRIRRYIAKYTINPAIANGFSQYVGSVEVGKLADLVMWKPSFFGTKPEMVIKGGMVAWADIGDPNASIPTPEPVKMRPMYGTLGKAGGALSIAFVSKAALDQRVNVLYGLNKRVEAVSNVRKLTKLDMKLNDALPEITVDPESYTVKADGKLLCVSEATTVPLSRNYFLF
Urease (Canavalia ensiformis), sequence (P07374 whole entry, looked up): as the sequence (P07374 whole entry) above

By MIC is commonly meant the lowest concentration that inhibits growth of the organism. By Ki is commonly meant a measure of affinity in units of concentration, obtained from inhibition or displacement. As to `COc1cccc(C(=O)NC(=S)Nc2ccc(S(N)(=O)=O)cc2)c1`, the minimal inhibitory concentration (MIC) in the test on Shigella flexneri, in the test on Escherichia coli, with Bacillus subtilis and in the test with Staphylococcus aureus was 0.313 µg/mL (≈ 0.857 µM) each time. Besides, the inhibitory constant (Ki) on Urease was found to be 650 nM.

Take `COc1ccc(C(=O)NC(=S)Nc2ccc(S(N)(=O)=O)cc2)c(OC)c1OC`: the MIC came to 0.313 µg/mL (≈ 0.736 µM) in the test on Shigella flexneri, 0.313 µg/mL (≈ 0.736 µM) in the test on Escherichia coli, 0.156 µg/mL (≈ 0.367 µM) with Bacillus subtilis and 0.156 µg/mL (≈ 0.367 µM) in the test on Staphylococcus aureus. Further, on Urease, the inhibition constant (Ki) came to 1340 nM.

`NS(=O)(=O)c1ccc(NC(=S)NC(=O)c2cccc([N+](=O)[O-])c2)cc1`: the minimum inhibitory concentration (MIC) in the test on Shigella flexneri, in the test on Escherichia coli, in the test with Bacillus subtilis and with Staphylococcus aureus was 0.313 µg/mL (≈ 0.823 µM) in each case. The inhibitory constant (Ki) on Urease came out at 450 nM.

Take `NS(=O)(=O)c1ccc(NC(=S)NC(=O)c2ccc([N+](=O)[O-])cc2)cc1`: the MIC came out at 0.313 µg/mL (≈ 0.823 µM) in the test with Shigella flexneri, 0.313 µg/mL (≈ 0.823 µM) in the test with Escherichia coli, 0.156 µg/mL (≈ 0.41 µM) in the test with Bacillus subtilis and 0.156 µg/mL (≈ 0.41 µM) in the test on Staphylococcus aureus. In addition, the Ki on Urease came out at 7500 nM.

With `CN(C/C=C/C#CC(C)(C)C)Cc1cccc2ccccc12` [TERBINAFINE], the entries for the “inhibition zone (IZ)” value in the test with Aspergillus flavus, with Aspergillus and in the test with Aspergillus niger were 5.7 mm, 5.2 mm and 5.3 mm, respectively.

In the case of `O=C(O)c1cn(C2CC2)c2cc(N3CCNCC3)c(F)cc2c1=O` [CIPROFLOXACIN], the MIC with Shigella flexneri turned out to be 0.313 µg/mL (≈ 0.945 µM); with Escherichia coli, 0.156 µg/mL (≈ 0.471 µM); with Bacillus subtilis, 0.625 µg/mL (≈ 1.89 µM); in the test with Staphylococcus aureus, 0.156 µg/mL (≈ 0.471 µM).

On to `CCCCCCCCCCCC(=O)NC(=S)Nc1ccc(S(N)(=O)=O)cc1`, for which the MIC in the test with Shigella flexneri, in the test on Escherichia coli, with Bacillus subtilis and in the test on Staphylococcus aureus was 0.313 µg/mL (≈ 0.757 µM) each time. Further, the “inhibition zone (IZ)” value in the test with Aspergillus flavus worked out at 5.1 mm; in the test on Aspergillus it was 4.9 mm; in the test with Aspergillus niger, 4.6 mm. Also, the inhibition constant Ki at Urease was 1300 nM.

With `NS(=O)(=O)c1ccc(NC(=S)NC(=O)c2ccc(Cl)cc2[N+](=O)[O-])cc1`, the MIC in the test on Shigella flexneri, in the test on Escherichia coli, with Bacillus subtilis and in the test on Staphylococcus aureus was 0.156 µg/mL (≈ 0.376 µM) throughout. At Urease, the Ki came to 5590 nM.

As a reminder, the inhibition is the share of the control response that was lost under treatment. As to `NS(=O)(=O)c1ccc(NC(=S)NC(=O)c2ccc(Cl)cc2Cl)cc1`, the MIC with Shigella flexneri, with Escherichia coli, in the test with Bacillus subtilis and in the test with Staphylococcus aureus was 0.313 µg/mL (≈ 0.774 µM) in each case. Further, the inhibition entry in the test on Aspergillus flavus and with Aspergillus was “inactive” each time. The Ki on Urease came out at 1910 nM. Also, the “inhibition zone (IZ)” value with Aspergillus niger is 0.8 mm.

Regarding `NS(=O)(=O)c1ccc(NC(=S)NC(=O)c2ccco2)cc1`, the minimal inhibitory concentration (MIC) stood at 0.313 µg/mL (≈ 0.962 µM) with Shigella flexneri, 0.313 µg/mL (≈ 0.962 µM) in the test with Escherichia coli, 0.625 µg/mL (≈ 1.92 µM) in the test with Bacillus subtilis and 0.625 µg/mL (≈ 1.92 µM) in the test on Staphylococcus aureus. Further, on Urease, the Ki was 1140 nM.

Turning to `NS(=O)(=O)c1ccc(NC(=S)NC(=O)c2cc([N+](=O)[O-])ccc2Cl)cc1`, the MIC turned out to be 0.313 µg/mL (≈ 0.754 µM) with Shigella flexneri, 0.313 µg/mL (≈ 0.754 µM) in the test on Escherichia coli, 0.156 µg/mL (≈ 0.376 µM) with Bacillus subtilis and 0.156 µg/mL (≈ 0.376 µM) in the test on Staphylococcus aureus. For the same compound, the “inhibition zone (IZ)” value came to 2.1 mm in the test with Aspergillus flavus and 1.6 mm in the test with Aspergillus niger. At Urease, the Ki came out at 440 nM. In addition, the inhibition result with Aspergillus was “inactive”. Moreover, in [1], the Ratio Ki was 50.

As to `CCC(CC(=O)NC(=S)Nc1ccc(S(N)(=O)=O)cc1)c1ccccc1` (stereo not drawn), the MIC with Shigella flexneri was 0.313 µg/mL (≈ 0.799 µM); in the test with Escherichia coli, 1.25 µg/mL (≈ 3.19 µM); with Bacillus subtilis it was 0.313 µg/mL (≈ 0.799 µM); in the test with Staphylococcus aureus, 0.625 µg/mL (≈ 1.6 µM). Further, the Ki on Urease amounted to 1230 nM.

In the case of `NS(=O)(=O)c1ccc(NC(=S)NC(=O)c2ccc(Cl)cc2)cc1`, the MIC was determined as 0.313 µg/mL (≈ 0.846 µM) with Shigella flexneri, 0.313 µg/mL (≈ 0.846 µM) with Escherichia coli, 0.156 µg/mL (≈ 0.422 µM) with Bacillus subtilis and 0.156 µg/mL (≈ 0.422 µM) in the test with Staphylococcus aureus. Besides, the Ki at Urease came out at 200 nM. Also, in test [1], the Ratio Ki was found to be 100.

On to `NS(=O)(=O)c1ccc(NC(=S)NC(=O)c2cccc(F)c2)cc1`, for which the MIC with Shigella flexneri came to 0.156 µg/mL (≈ 0.441 µM); in the test on Escherichia coli, 0.313 µg/mL (≈ 0.886 µM); in the test with Bacillus subtilis, 0.313 µg/mL (≈ 0.886 µM); with Staphylococcus aureus it was 0.313 µg/mL (≈ 0.886 µM). Besides, the “inhibition zone (IZ)” value was 2.8 mm in the test on Aspergillus flavus and 2.4 mm with Aspergillus niger. The Ki on Urease was 1490 nM. For the same compound, the inhibition result with Aspergillus is “inactive”.

`Cc1cccc(C(=O)NC(=S)Nc2ccc(S(N)(=O)=O)cc2)c1`: the MIC was 0.313 µg/mL (≈ 0.896 µM) with Shigella flexneri, 1.25 µg/mL (≈ 3.58 µM) with Escherichia coli, 0.313 µg/mL (≈ 0.896 µM) with Bacillus subtilis and 0.625 µg/mL (≈ 1.79 µM) with Staphylococcus aureus. Moreover, at Urease, the Ki was 890 nM.

For the compound `NS(=O)(=O)c1ccc(NC(=S)NC(=O)c2cccc(Cl)c2)cc1`, the minimal inhibitory concentration (MIC) with Shigella flexneri, with Escherichia coli, in the test on Bacillus subtilis and in the test with Staphylococcus aureus was 0.156 µg/mL (≈ 0.422 µM) in each case. The Ki at Urease was determined as 1500 nM.

Regarding `NC(N)=S` [THIOUREA], the inhibitory constant (Ki) on Urease was 23000 nM.

As to `COc1cc(OC)cc(C(=O)NC(=S)Nc2ccc(S(N)(=O)=O)cc2)c1`, the minimal inhibitory concentration (MIC) in the test with Shigella flexneri, in the test with Escherichia coli, in the test with Bacillus subtilis and in the test with Staphylococcus aureus was 0.313 µg/mL (≈ 0.791 µM) in each case. Moreover, the entries for the “inhibition zone (IZ)” value in the test on Aspergillus flavus, in the test with Aspergillus and in the test on Aspergillus niger were 1.9 mm, 2.7 mm and 1.5 mm, respectively. For the same compound, the Ki at Urease was found to be 1210 nM.

As for `Cc1ccccc1C(=O)NC(=S)Nc1ccc(S(N)(=O)=O)cc1`, the MIC with Shigella flexneri turned out to be 0.313 µg/mL (≈ 0.896 µM); in the test on Escherichia coli, 0.313 µg/mL (≈ 0.896 µM); in the test on Bacillus subtilis, 0.625 µg/mL (≈ 1.79 µM); in the test with Staphylococcus aureus, 0.625 µg/mL (≈ 1.79 µM). In addition, the inhibition in [2] is 53%.

For the compound `COc1cccc(C(=O)NC(=S)Nc2ccc(S(N)(=O)=O)cc2)c1OC`, the MIC was 0.156 µg/mL (≈ 0.394 µM) in the test with Shigella flexneri, 0.313 µg/mL (≈ 0.791 µM) in the test with Escherichia coli, 0.313 µg/mL (≈ 0.791 µM) in the test with Bacillus subtilis and 0.313 µg/mL (≈ 0.791 µM) with Staphylococcus aureus. The inhibition entry in the test on Aspergillus flavus and with Aspergillus niger was “inactive” throughout. Further, on Urease, the Ki is 820 nM. In the test with Aspergillus, the “inhibition zone (IZ)” value is listed as 0.9 mm.

Consider `Cc1ccc(C(=O)NC(=S)Nc2ccc(S(N)(=O)=O)cc2)cc1`, for which the MIC in the test on Shigella flexneri was 0.156 µg/mL (≈ 0.446 µM); with Escherichia coli, 0.313 µg/mL (≈ 0.896 µM); in the test with Bacillus subtilis, 0.313 µg/mL (≈ 0.896 µM); in the test with Staphylococcus aureus, 0.313 µg/mL (≈ 0.896 µM). Moreover, the Ki at Urease was 4320 nM.

With `NS(=O)(=O)c1ccc(NC(=S)NC(=O)Cc2ccccc2)cc1`, the MIC in the test with Shigella flexneri, in the test with Escherichia coli, with Bacillus subtilis and in the test on Staphylococcus aureus was 0.313 µg/mL (≈ 0.896 µM) in each case. The Ki on Urease was found to be 1600 nM.
